Experimental data reported in ChEMBL document CHEMBL3272241, “Synthesis and antiprotozoal activity of 2,5-bis(4-guanylphenyl)thiophenes and -pyrroles” (J Med Chem, 1977).
Activity calls are given as the source filed them. No cut-off for these calls is given here.

Legend:
[1] = tested on: Trypanosoma brucei rhodesiense; test: Antitrypanosomal activity against Trypanosoma rhodesiense infected in mouse assessed as increase in survival time by 30 days at 320 mg/kg relative to control; type: functional
[2] = tested on: Trypanosoma brucei rhodesiense; test: Antitrypanosomal activity against Trypanosoma rhodesiense infected in mouse assessed as increase in survival time by 30 days at 2.5 mg/kg relative to control; type: functional
[3] = tested on: Plasmodium berghei; test: Antimalarial activity against Plasmodium berghei infected in mouse; type: functional, organism-based
[4] = tested on: Trypanosoma brucei rhodesiense; test: Antitrypanosomal activity against Trypanosoma rhodesiense infected in mouse assessed as increase in survival time by 30 days at 20 mg/kg relative to control; type: functional
[5] = tested on: Trypanosoma brucei rhodesiense; test: Antitrypanosomal activity against Trypanosoma rhodesiense infected in mouse assessed as increase in survival time by 30 days at 40 mg/kg relative to control; type: functional
[6] = tested on: Trypanosoma brucei rhodesiense; test: Antitrypanosomal activity against Trypanosoma rhodesiense infected in mouse assessed as increase in survival time by 30 days at 160 mg/kg relative to control; type: functional
[7] = tested on: Trypanosoma brucei rhodesiense; test: Antitrypanosomal activity against Trypanosoma rhodesiense infected in mouse assessed as increase in survival time by 30 days at 80 mg/kg relative to control; type: functional
[8] = tested on: Trypanosoma brucei rhodesiense; test: Antitrypanosomal activity against Trypanosoma rhodesiense infected in mouse assessed as increase in survival time by 30 days at 10 mg/kg relative to control; type: functional
[9] = tested on: Trypanosoma brucei rhodesiense; test: Antitrypanosomal activity against Trypanosoma rhodesiense infected in mouse assessed as increase in survival time by 30 days at 5 mg/kg relative to control; type: functional
[10] = tested on: Trypanosoma brucei rhodesiense; test: Antitrypanosomal activity against Trypanosoma rhodesiense infected in mouse assessed as increase in survival time by 30 days at 640 mg/kg relative to control; type: functional
[11] = tested on: Trypanosoma brucei rhodesiense; test: Antitrypanosomal activity against Trypanosoma rhodesiense infected in mouse assessed as increase in mean survival time at 160 mg/kg relative to control; type: functional
[12] = tested on: Mus musculus; test: Acute toxicity in mouse infected with Trypanosoma rhodesiense assessed as death at 320 mg/kg; type: organism-based; parameters: dose 320 mg/kg; details: in vivo
[13] = tested on: Mus musculus; test: Acute toxicity in mouse infected with Trypanosoma rhodesiense assessed as death at 640 mg/kg; type: organism-based; parameters: dose 640 mg/kg; details: in vivo
[14] = tested on: Trypanosoma brucei rhodesiense; test: Antitrypanosomal activity against Trypanosoma rhodesiense infected in mouse assessed as increase in mean survival time at 20 mg/kg relative to control; type: functional
[15] = tested on: Trypanosoma brucei rhodesiense; test: Antitrypanosomal activity against Trypanosoma rhodesiense infected in mouse assessed as increase in mean survival time at 40 mg/kg relative to control; type: functional
[16] = tested on: Trypanosoma brucei rhodesiense; test: Antitrypanosomal activity against Trypanosoma rhodesiense infected in mouse assessed as increase in mean survival time at 80 mg/kg relative to control; type: functional

Row | Compound | MST [1] [days] | MST [2] [days] | Activity [3] | MST [4] [days] | MST [5] [days] | MST [6] [days] | MST [7] [days] | MST [8] [days] | MST [9] [days] | MST [10] [days] | MST [11] [days] | Activity [12] | Activity [13] | MST [14] [days] | MST [15] [days] | MST [16] [days]
1 | Cn1c(-c2ccc([C+](N)N)cc2)ccc1-c1ccc([C+](N)N)cc1.[Cl-].[Cl-] | 5 | 2 | inactive | 5 | 5 | 5 | 5 | 5 | 4 | – | – | – | – | – | – | –
2 | N=C(N)c1ccc(OCCCCCOc2ccc(C(=N)N)cc2)cc1 [PENTAMIDINE] | 5 | 4 | – | 5 | 5 | 5 | 5 | 5 | 5 | 5 | – | – | – | – | – | –
3 | [Cl-].[Cl-].c1cc([C+]2NCCN2)ccc1-c1ccc(-c2ccc([C+]3NCCN3)cc2)s1 | 2 | – | inactive | – | – | – | – | – | – | 3 | 1.6 | – | – | – | – | –
4 | Cn1c(-c2ccc([C+]3NCCCN3)cc2)ccc1-c1ccc([C+]2NCCCN2)cc1.[Cl-].[Cl-] | – | – | inactive | 3 | 5 | 3 | 5 | 2 | – | – | – | Toxic | Toxic | – | – | –
5 | [Cl-].[Cl-].c1cc([C+]2NCCCN2)ccc1-c1ccc(-c2ccc([C+]3NCCCN3)cc2)s1 | 5 | – | inactive | 3 | 4 | 4 | 4 | 2 | – | 5 | – | – | – | – | – | –
6 | N=C(N)c1ccc(-c2ccc(-c3ccc(C(=N)N)cc3)o2)cc1 [FURAMIDINE] | 5 | 4 | – | 5 | 5 | 5 | 5 | 5 | 5 | 5 | – | – | – | – | – | –
7 | N=C(N)c1ccc(/C=C/c2ccc(C(=N)N)cc2O)cc1 [HYDROXYSTILBAMIDINE] | 5 | 5 | – | 5 | 5 | 5 | 5 | 5 | 5 | 5 | – | – | – | – | – | –
8 | CC1CN[C+](c2ccc(-c3ccc(-c4ccc([C+]5NCC(C)N5)cc4)s3)cc2)N1.[Cl-].[Cl-] (stereo not drawn) | 4 | – | inactive | – | – | 2 | – | – | – | 4 | – | – | – | 1 | 1.2 | 3
9 | Cl.Cl.N=C(N)c1ccc(-c2ccc(-c3ccc(C(=N)N)cc3)s2)cc1 | – | 3 | inactive | 5 | 5 | 5 | 5 | 5 | 4 | – | – | – | – | – | – | –
10 | CC1CN[C+](c2ccc(-c3ccc(-c4ccc([C+]5NCC(C)N5)cc4)n3C)cc2)N1.[Cl-].[Cl-] (stereo not drawn) | 5 | – | inactive | 3 | 4 | 5 | 5 | – | – | 5 | – | – | – | – | – | –
11 | Cn1c(-c2ccc([C+]3NCCN3)cc2)ccc1-c1ccc([C+]2NCCN2)cc1.[Cl-].[Cl-] | – | – | inactive | 3 | 4 | 5 | 4 | 2 | – | – | – | – | – | – | – | –
12 | N=C(N)c1ccc(/C=C/c2ccc(C(=N)N)cc2)cc1 [STILBAMIDINE] | 5 | 5 | – | 5 | 5 | 5 | 5 | 5 | 5 | 5 | – | – | – | – | – | –
